Results published in patent publication US20150359757A1, “A METHOD FOR IMPROVING THE WELLBEING OF AN ANIMAL USING A COMPOSITION INCLUDING VITAMIN K” (priority 2013, published 2015).

How the values were obtained:
[1] = from vegetable sources, humans; cited from earlier work
animals = conditions: cited from earlier work
[2] = test system: carboxylation of endogenous precursors; conditions: cited from earlier work
[3] = complete feed formulation of multivitamins, choline chloride and trace mineral premix; room temperature; 4 months; cited from earlier work
turkeys = assay: Turkey feeding experiment, Example 8; format: in vivo
Experimental: An experiment was conducted in turkeys. In this experiment all diets used in this study were identical in nutrients, the only difference being that the control diets contained 4 gm/tonne K3 and the experimental diet contained the formulated vitamin KQ at 580 mg/tonne or per 1000 L.
Three groups of 5000 turkeys (15000 turkeys per farm) were used. In the control groups 1 and 3 were fed Vitamin K3 (4 gm/tonne of food). Experimental group 2 was fed Vitamin KQ (580 mg formulated K1/K2/Example 2/tonne of food). 200 turkeys from each group were then weighed at 10 weeks.

layer hens = assay: Caged layer fatigue, X-ray bone density in layer hens, Example 12; format: in vivo
[4] = test system: calcium transfer from luman-blood; conditions: chickens, 2.5 umole of menadione/kg (430 ugK3/Kg bwt.); cited from earlier work
chickens = assay: Chickens hatched from breeder layer eggs, bone density and bone ash, Example 15; format: in vivo
Experimental: An experiment was conducted with laying birds and broilers: • A) Chickens hatched from the breeder layer eggs (fed 580 mg/tonne of formulated vitamin KQ) contained 50-100 ug Vitamin K1 per egg from day 1 (Example 2); • B) Chickens hatched from the breeder layer eggs were fed 4 gm/tonne vitamin K3 from day 1 contained 4-10 ug vitamin K1 per egg from day 1.
1000 chickens from each group were slaughtered at day 35 and X-rayed.

ducks = assay: Duck rearing/fattening trial, Example 16; format: in vivo; conditions: up until the 10th week, KQ 580 mg or K3 4 gm per 1000 L water
Experimental: An experiment was conducted with ducks. In the duck's rearing/fattening a similar experience was found as with chickens and turkeys with respect to observations of weight, welfare and behaviour. Duration of trial: 16 weeks • Age: Supplemented from day 7 onwards • Amount: 7,500 birds • Experimental Group: 3,500 birds • Control Group: 4,000 birds • Dosage: Treatment 580 mg KQ per 1000 L water (Example 2). Control 4 gm vitamin K3 per 1000 L water • Dosage given for 24 hours 3× per week.

chickens (broilers) = assay: Broiler chicken feeding experiment, Example 11; format: in vivo
Experimental: An experiment was conducted with chickens (broilers). 41,000 chickens were in a control group and were fed 4 gm/tonne vitamin K3. 41,000 thickens were in an experimental group and fed on experimental diet of 580 mg of Vitamin KQ (Example 2) formulated per tonne of food. Results were determined after the chickens were 30 days old.

prothrombin synthesis = conditions: in animals; cited from earlier work
laying birds = assay: Old laying birds feeding experiment, Example 14; format: in vivo
Experimental: An experiment was conducted with old laying birds aged 21 weeks. 20,000 birds were given 580 mg formulated vitamin KQ/tonne of food (Example 2), instead of the control diet of 4 gm/tonne Vitamin K3.

## CC1=C(C/C=C(\C)CCC[C@H](C)CCC[C@H](C)CCCC(C)C)C(=O)c2ccccc2C1=O [vitamin K1, phylloquinone]
[1]
  bioavailability: 4.7-15%
animals; animals
  dose consumed that does not result in any toxicity: 25 gm/kg
[2]
  relative activity versus menadione Vitamin K3: 4 times

## CC1(S(=O)(=O)O)CC(=O)c2ccccc2C1=O.Cc1cc(C)[nH]c(=O)n1 (stereo not drawn) [MPB, menadione dimethyl-pyrimidol bisulphite]
[3]
  retained (stability): 57%

## CC1(S(=O)(=O)[O-])CC(=O)c2ccccc2C1=O.[Na+] (stereo not drawn) [MSB, menadione sodium bisulphite]
[3]
  retained (stability): 33%

## CC1=CC(=O)c2ccccc2C1=O [Vitamin K3, menadione]
turkeys; turkeys
  E. coli / colibacillus infection (observation): colibacillus infection was evident
turkeys; turkeys at 10 weeks, K3 4 gm/tonne of food
  weight deviation: up to 1.2 kg
turkeys; turkeys at 10 weeks, KQ 580 mg/tonne, K3 4 gm/tonne of food
  average weight: 6.97 kg
Layer hens; Day 27 to Day 35, 250 ug/bird/day
  Change % of RBAE bone density: −5.4%
Layer hens; layer hens
  effect on bone growth / strength (observation): deceased bone growth
  effect on caged layer fatigue (loss of bone density): failed to prevent the disease
Layer hens; layer hens, 250 ug/bird/day, Day 27
  bone density as RBAE (Radiographic bone aluminium equivalents), Day 27: 3.85 mm
Layer hens; layer hens, 250 ug/bird/day, Day 35
  bone density as RBAE (Radiographic bone aluminium equivalents), Day 35: 3.64 mm
[4]
  duration of inhibition of calcium transfer: 6 to 10 h
  time to inhibition of calcium transfer: ≤ 30 min
chickens; chickens hatched from breeder layer eggs, slaughtered at day 35, K3 4 gm/tonne, KQ 580 mg/tonne of feed
  bone density as RBAE (Radiographic bone aluminium equivalents), Day 35: 3.64 mm
chickens; chickens slaughtered at day 35
  Bone Ash: 35%
chickens; day 35
  bone ash relative to that of Vitamin KQ: 83%
  bone density relative to that of Vitamin KQ: 60%
animals; animals
  dose at which toxic levels are reached: 0.5 mg/kg
animals; relative to vitamin K1
  more toxic than vitamin K1: at least 50 ×
ducks
  feather picking (observation): extensive feather picking
Chickens (broilers); broilers
  Dropsy: 0.36%
  Marketable animals according an official poultry meat inspector: 95.25%
  Marketable feet A quality: 81.37%
  Skin infections: 3.65%
Chickens (broilers); of 41,000 birds slaughtered
  birds with broken bones at slaughter: 3200 birds
Prothrombin synthesis
  effect on prothrombin synthesis, times lower: approximately 100 times
Laying birds; 20,000 birds, KQ 580 mg/tonne, K3 4 gm/tonne of food
  eggs per day: 14,800 eggs per day
Laying birds; age of layers 2 weeks
  % eggs layed: 92%
Laying birds; age of layers 21 weeks
  % eggs layed: 92%
Laying birds; age of layers 60 weeks
  % eggs layed: 74%
Laying birds; age of layers 90 weeks
  % eggs layed: 54%
